Assay results as given in patent publication US20130096149A1, “HETEROARYL COMPOUNDS AND COMPOSITIONS AS PROTEIN KINASE INHIBITORS” (NOVARTIS AG, priority 2010, published 2013).

Target: b-Raf(V600E) (Homo sapiens, UniProt P15056, V600E)
Experiment: Raf/Mek Amplified Luminescence Proximity Homogeneous Assay (Alpha Screen)
Assay type: biochemical
Details: b-Raf(V600E) approximately 4 pM; biotinylated Mek, kinase dead approximately 10 nM; ATP 10 μM; pre-incubation 60 minutes; reaction 3 hours at room temperature; read-out: mut-bRaf IC50
Description: Raf/Mek Amplified Luminescence Proximity Homogeneous Assay
Assay buffer: 50 mM Tris, pH 7.5, 15 mM MgCl2, 0.01% Bovine Serum Albumin (BSA), 1 mM dithiothreitol (DTT) Stop buffer: 60 mM ethylenediaminetetraacetic acid (EDTA), 0.01% Tween® 20 Bead buffer: 50 mM Tris, pH 7.5, 0.01% Tween® 20 […]
biotinylated Mek, kinase dead
Alpha Screen detection kit (available from PerkinElmer™, #6760617R)
Anti phospho-MEK1/2 (available from Cell Signaling Technology, Inc. #9121) 384 well assay plates (White Greiner® plates, #781207) […]
b-Raf(V600E) approximately 4 pM […]
biotinylated Mek, Kinase dead approximately 10 nM
Pre-incubation time with compounds 60 minutes at room temperature
Reaction time 1 or 3 hours at room temperature
Raf and biotinylated Mek, kinase dead, were combined at 2× final concentrations in assay buffer (50 mM Tris, pH 7.5, 15 mM MgCl2, 0.01% BSA and 1 mM DTT) and dispensed 10 μl per well in assay plates (Greiner white 384 well assay plates #781207) containing 0.5 μl of 40× of a raf kinase inhibitor test compound diluted in 100% DMSO. The plate was incubated for 60 minutes at room temperature.
The Raf kinase activity reaction was started by the addition of 10 μL per well of 2×ATP diluted in assay buffer. After 3 hours (bRaf(V600E)) or 1 hour (c-Raf), the reactions were stopped with the addition of 10 μL of stop reagent (60 mM EDTA). Phosphorylated product was measured using a rabbit anti-p-MEK (Cell Signaling, #9121) antibody and the Alpha Screen IgG (ProteinA) detection Kit (PerkinElmer #6760617R), by the addition of 30 μL to the well of a mixture of the antibody (1:2000 dilution) and detection beads (1:2000 dilution of both beads) in bead buffer (50 mM Tris, pH 7.5, 0.01% Tween20). The additions were carried out under dark conditions to protect the detection beads from light. A lid was placed on top of the plate and incubated for 1 hour at room temperature, then the luminescence was read on a PerkinElmer Envision instrument. The concentration of each compound for 50% inhibition (IC50) was calculated by non-linear regression using XL Fit data analysis software.

Sequence of b-Raf(V600E) (P15056 whole entry V600E): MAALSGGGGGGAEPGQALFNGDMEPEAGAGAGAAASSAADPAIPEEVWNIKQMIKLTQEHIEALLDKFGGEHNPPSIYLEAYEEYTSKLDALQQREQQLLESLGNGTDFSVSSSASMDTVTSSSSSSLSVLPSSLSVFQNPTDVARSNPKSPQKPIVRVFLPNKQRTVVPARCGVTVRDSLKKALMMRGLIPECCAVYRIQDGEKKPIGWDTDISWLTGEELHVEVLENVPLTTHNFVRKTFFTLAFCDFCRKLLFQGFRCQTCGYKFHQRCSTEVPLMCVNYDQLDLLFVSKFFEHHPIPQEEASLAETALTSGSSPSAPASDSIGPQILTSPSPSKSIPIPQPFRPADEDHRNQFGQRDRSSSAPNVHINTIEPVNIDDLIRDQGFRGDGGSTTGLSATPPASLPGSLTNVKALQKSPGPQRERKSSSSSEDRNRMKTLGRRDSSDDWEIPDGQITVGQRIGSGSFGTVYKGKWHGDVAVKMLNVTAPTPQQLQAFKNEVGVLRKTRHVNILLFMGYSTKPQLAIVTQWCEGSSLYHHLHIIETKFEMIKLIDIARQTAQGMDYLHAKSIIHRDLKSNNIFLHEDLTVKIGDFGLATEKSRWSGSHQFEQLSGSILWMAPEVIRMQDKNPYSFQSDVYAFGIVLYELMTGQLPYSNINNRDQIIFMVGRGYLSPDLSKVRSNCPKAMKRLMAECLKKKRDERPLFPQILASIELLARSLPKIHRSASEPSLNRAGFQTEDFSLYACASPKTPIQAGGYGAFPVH

Row | SMILES | IC50 [nM]
1 | CC(C)(C)c1nc(-c2cc(F)cc(NS(C)(=O)=O)c2Cl)c(-c2ccnc(N)n2)s1 [Example 12] | 9
2 | CCCS(=O)(=O)Nc1cccc(-c2nc(C3CC3)sc2-c2ccnc(N)n2)c1F [Example 41] | 11
3 | CCCS(=O)(=O)Nc1cccc(-c2nc(C3CC3)oc2-c2ccnc(NC[C@H](C)NC(=O)OC)n2)c1Cl [Example 31] | 1.3
4 | CS(=O)(=O)Nc1cc(Cl)cc(-c2nc(C3CC3)sc2-c2ccnc(N)n2)c1Cl [Example 53] | 0.45
5 | COC(=O)N[C@@H](C)CNc1nccc(-c2sc(C(C)(C)C)nc2-c2cc(Cl)cc(NS(C)(=O)=O)c2Cl)n1 [Example 49] | 0.4
6 | COC(=O)N[C@@H](C)CNc1nccc(-c2oc(C3CC3)nc2-c2cc(Cl)cc(NS(C)(=O)=O)c2F)n1 [Example 5, (S)-methyl 1-(4-(4-(5-chloro-2-fluoro-3-(methylsulfonamido)phenyl)-2-cyclopropyloxazol-5-yl)pyrimidin-2-ylamino)propan-2-ylcarbamate] | 0.82

Molecules with a lower IC50, results first:

Row | IC50 [nM] | SMILES
7 | 0.077 | CCCS(=O)(=O)Nc1cc(F)cc(-c2nc(C3CC3)sc2-c2ccnc(NC[C@H](C)NC(=O)OC)n2)c1Cl [Example 15]
8 | 0.056 | CCCS(=O)(=O)Nc1cc(Cl)cc(-c2nc(C3CC3)sc2-c2ccnc(N)n2)c1Cl [Example 50]
9 | 0.08 | CCCS(=O)(=O)Nc1cc(Cl)cc(-c2nc(C3CC3)sc2-c2ccnc(NC)n2)c1Cl [Example 51]
10 | 0.09 | CCCS(=O)(=O)Nc1cc(Cl)cc(-c2nc(C3CC3)sc2-c2ccnc(NC[C@H](C)NC(=O)OC)n2)c1F [Example 65]
11 | 0.28 | CCCS(=O)(=O)Nc1cc(Cl)cc(-c2nc(C3CC3)oc2-c2ccnc(NC[C@H](C)NC(=O)OC)n2)c1F [Example 64]
